Key:
[1] = tested on: CD44high DLD-1 cells; assay: CD44high cells in DLD-1 cells (FCM analysis); type: cell-based, human; conditions: 48 h, 50 μM IC-2, 0.5 or 5 μM 5-FU, compared with control
Method: In addition, DLD-1 cells were seeded at 1×10^6 cells/10-cm cell culture dish. After 24 h, the cells were treated with 0.5 or 5 μM of 5-FU or 50 μM of IC-2. At additional 48 h, the cells were harvested. As a primary antibody, used was a mouse anti-human CD44 antibody (Abcam Ltd., Cambridge, UK). Then, Alexa Fluor 488-labeled goat anti-mouse IgG (H+L) (Life Technologies Corp., Carlsbad, Calif.) was used. After that, a MoFlo XDP (Beckman Coulter Inc., Fullerton, Calif.) was used for analysis.

[2] = tested on: CD44-expressing HSC2 cells; assay: CD44-expressing cells in HSC2 cells (cell sorter analysis); type: cell-based, human; conditions: 48 h, 25 μM IC-2 or 0.5 μM 5-FU, 83.9% without treatment
Method: In addition, HSC2 cells were seeded at 5×10^5 cells/10-cm cell culture dish (TPP). After 24 h, the cells were treated with 0.5 μM of 5-FU or 25 μM of IC-2. Also prepared were cells without low-molecular-weight compound treatment (0 μM). After additional 48 h, the respective cells were harvested. As a primary antibody, used was a mouse anti-human CD44 antibody (Abcam Ltd., Cambridge, UK). Then, Alexa Fluor 488-labeled goat anti-mouse IgG (H+L) (Life Technologies Corp., Carlsbad, Calif.) was used. After that, a cell sorter BD bioscience FACS Aria (Becton, Dickinson and Company, Franklin Lakes, N.J.) was used for analysis.

[3] = tested on: cancer stem cells (CD44) in HuH-7 cells; assay: Inhibitory effect on cancer stem cells (FCM analysis of CD44), Example 6.4; type: cell-based, human; conditions: CD44, day 2, IC-2 50 μM, 5-FU 0.5 μM, compared with control 1% DMSO
Method: CD44, a cancer stem cell marker, was used as an indicator to examine an inhibitory effect of IC-2 on cancer stem cells. First, 70 to 90% confluent HuH-7 cells were harvested and seeded at 1.5×10^6 cells per 10-cm cell culture dish. After 15 h, the cells were treated with hexachlorophene (15 μM), ICG-001 (15 μM), PKF118-310 (5 μM), IC-2 (50 μM), or 5-FU (0.5 μM), and the mixture was cultured at 37° C. Each control sample used was 1% DMSO, a solvent for each compound or the anti-cancer drug. Day 2 after the drug treatment, the cells were harvested from each culture dish. The cells were centrifuged at 1000 rpm and at 4° C. for 5 min to remove a supernatant and were then washed twice with 1 mL of 0.5% FBS/2 mM EDTA/PBS. Next, the cells were suspended in 500 μL of 5% BSA/0.5% FBS/2 mM EDTA/PBS for blocking at 4° C. for 15 min.
Then, 5 μL of a mouse anti-human CD44 monoclonal antibody (156-3C11, Cell Signaling Technology Inc., Danvers, Mass.) was added to 500 μL of the cell suspension. The mixture was resuspended and subjected to a primary antibody reaction in a dark room at 4° C. for 10 min. After that, the cells were washed 3 times with 1 mL of PBS. Subsequently, 1.0 μg of Alexa Fluor 488-labeled IgG (H+L) (Life Technologies Corp., Carlsbad, Calif.) was added and the mixture was suspended. Then, a secondary antibody reaction was carried out in a dark room at 4° C. for 10 min. […]

[4] = Liver cancer model mouse, body weight; type: in vivo, mice; conditions: 30 mg/kg 5-FU or 50 mg/kg IC-2 intraperitoneally every three days
Method: CD44-positive HuH-7 cells were subcutaneously transplanted in mice. Next, the engrafted mice were divided into 3 groups (DMSO group: 5 mice; 5-FU group: 4 mice; and IC-2 group: 4 mice). Then, DMSO was added to prepare 30 mg/kg of 5-FU and 50 mg/kg of IC-2 such that each liquid volume was 100 μL; and 100% DMSO, a solvent for each drug, was used as a control sample. Subsequently, each drug was dosed intraperitoneally every three days. The body weight of each mouse and the long and short diameters of a tumor were measured every three days. The tumor volume was calculated by using the following equation: Tumor volume=Long diameter×(Short diameter)^2×0.5. The volume at Day 0 was used to normalize each tumor volume, and then a graph was created. To fully evaluate a 5-FU effect, the 5-FU dose was set to an amount 2 times the regular amount 15 mg/kg used in research articles. The concentration of IC-2 corresponding to a concentration at which Wnt/β-catenin signaling was inhibited in vitro was calculated. Then, the concentration was doubled to set an IC-2 dose.

[5] = tested on: Wnt/β-catenin signal; conditions: as described in Patent Literature 1; cited from earlier work
[6] = tested on: cancer stem cells; conditions: Fbxw7-deficient model mice, Takeishi et al. 2013; cited from earlier work

## O=c1[nH]cc(F)c(=O)[nH]1 [Compound 5-FU, 5-fluorouracil, reference compound]
[1]
  percentage of CD44high cells: rather increased the percentage
[2]
  percentage of CD44-expressing cells: 83.3%
[3]
  number of cancer stem cells: rather increased the number of cancer stem cells
[4]
  body weight: no change in the body weight

## COc1c(Cl)cc(Cl)c(Cl)c1Cc1c(Cl)c(Cl)cc(Cl)c1OC [HC-1, hexachlorophene methyl ether bis(2,3,5-trichloro-6-methoxyphenyl)methane]
[5]
  Wnt/β-catenin signal in a mesenchymal stem cell and differentiation into hepatocytes: inhibit a Wnt/β-catenin signal in a mesenchymal stem cell, thereby inducing differentiation of the mesenchymal stem cell into hepatocytes

## Cc1ccc(NC(=O)c2ccc(CN3CCN(C)CC3)cc2)cc1Nc1nccc(-c2cccnc2)n1 [imatinib]
[6]
  cancer stem cells: cancer stem cells were killed

— US10597398B2, “Suppression and regeneration promoting effect of low molecular weight compound on cancer and fibrosis” (NATIONAL UNIVERSITY CORPORATION TOTTORI UNIVERSITY, priority 2015, dated 2020)
